Assay results from US12377152B2, “Compounds for degrading alpha-synuclein aggregates and uses thereof” (APRINOIA THERAPEUTICS LIMITED, priority 2019, dated 2025).

target: α-synuclein aggregates (Homo sapiens (Human), UniProt P37840); assay: ReNcell VM α-synuclein aggregation assay; format: cell-based; conditions: 6-day treatment, immunocytochemical images
Description: The ReNcell VM α-synuclein aggregation assay was conducted at Charles River Laboratories (CRL). ReNcell VM is an immortalized human neural progenitor cell line derived from the ventral mesencephalon region of the brain. ReNcell VM cells were selected as in vitro cellular model for the α-synuclein aggregation assay, based on their growth features, differentiation potential into terminally differentiated neurons and amenability to adenoviral transduction. Aggregated human wild type α-synuclein was overexpressed through adenoviral delivery. Aggregated α-synuclein was detected with the aggregate-selective anti-α-synuclein antibody MJFR14 using immunocytochemistry; total α-synuclein levels were detected with Syn205 (α/β-synuclein-specific antibody).
The ReNcell VM α-synuclein aggregation assay was applied for compound screening to identify compounds capable of degrading α-synuclein aggregates. […] Immunoreactivity toward aggregated (MJFR14) and total α-synuclein (Syn205) was quantified using high content-based segmentation of immunoactive areas in immunocytochemical images (performed with the IN Cell 2200 (GE Healthcare)), followed by quantification of immunofluorescent intensity (performed by CRL's developed algorithm using IN Cell Developer Toolbox software).
Percentage effect (PE): Inhibition in comparison to BLANK (0.1% DMSO).
PE=100−(signal of compound/average signal BLANK)×100
Compound-induced cytotoxicity (% remaining cells)
% remaining cells=(nuclei count of compound/average nuclei count of BLANK)×100

| inhibition of MJFR14 immunoreactivity | SMILES |
| --- | --- |
| clear inhibition | CN(C)c1ccc(-c2ccc(-c3nc4ccc(NCCCNC(=O)COc5ccc6c(c5)CN(C5CCC(=O)NC5=O)C6=O)cc4s3)c(C(F)(F)F)c2)cn1 (stereo not shown) [Compound 166362] |

same assay, conditions: 24 hour treatment, differentiated ReNcell VM cells

| inhibition of MJFR14 immunoreactivity | SMILES |
| --- | --- |
| concentration-dependent inhibition | COc1ccc2nc(-c3ccc(-c4ccnc(NCCOCCOc5ccc6c(c5)CN(C5CCC(=O)NC5=O)C6=O)c4)cc3)cn2c1 (stereo not shown) [Compound 162640, 3-[6-[2-[2-[[4-[4-(6-methoxyimidazo[1,2-a]pyridin-2-yl)phenyl]pyridin-2-yl]amino]ethoxy]ethoxy]-3-oxidanylidene-1H-isoindol-2-yl]piperidine-2,6-dione] |
| concentration-dependent inhibition | CN(C)c1ccc(-c2ccc(-c3nc4ccc(NCCCNC(=O)COc5ccc6c(c5)CN(C5CCC(=O)NC5=O)C6=O)cc4s3)c(C(F)(F)F)c2)cn1 (stereo not shown) [Compound 166362] |

same assay, conditions: ReNcell VM cells; read-out: Activity (DC50, concentration at which 50% of α-synuclein aggregates has been degraded)

| DC50 [µM] | SMILES |
| --- | --- |
| > 10 | Cc1ncsc1-c1ccc(CNC(=O)[C@@H]2C[C@@H](O)CN2C(=O)[C@@H](NC(=O)COCCOCCOCCOCCOCCNc2ccc3nc(-c4ccc(-c5ccc(N(C)C)nc5)cc4)sc3c2)C(C)(C)C)cc1 (racemic) [Compound 161247, rac-(2R,4S)—N-[[4-(4-methyl-1,3-thiazol-5-yl)phenyl]methyl]-4-hydroxy-1-[rac-(2R)-2-[2-[2-[2-[2-[2-[2-[[2-[4-[6-(dimethylamino)pyridin-3-yl]phenyl]-1,3-benzothiazol-6-yl]-amino]ethoxy]ethoxy]ethoxy]ethoxy]ethoxy]ethanoylamino]-3,3-dimethyl-butanoyl]pyrrolidine-2-carboxamide] |
| > 10 | Cc1ncsc1-c1ccc(CNC(=O)[C@@H]2C[C@@H](O)CN2C(=O)[C@@H](NC(=O)COCCOCCOCCOCCOCCNc2ccc(-c3ccc(-c4nc5ccc(N(C)C)cc5s4)cc3)cn2)C(C)(C)C)cc1 (racemic) [Compound 161598, rac-(2R,4S)—N-[[4-(4-methyl-1,3-thiazol-5-yl)phenyl]methyl]-4-oxidanyl-1-[rac-(2R)-2-[2-[2-[2-[2-[2-[2-[[5-[4-[6-(dimethylamino)-1,3-benzothiazol-2-yl]phenyl]pyridin-2-yl]amino]ethoxy]ethoxy]ethoxy]ethoxy]ethoxy]ethanoylamino]-3,3-dimethyl-butanoyl]pyrrolidine-2-carboxamide] |
| > 10 | CN(C)c1ccc(-c2ccc(-c3nc4ccc(NCCCOCCCOc5ccc6c(c5)CN(C5CCC(=O)NC5=O)C6=O)cc4s3)c(C(F)(F)F)c2)cn1 (stereo not shown) [Compound 123374] |
| > 10 | COc1ccc2nc(-c3ccc(-c4ccnc(NCCOCCOc5ccc6c(c5)C(=O)N(C5CCC(=O)NC5=O)C6=O)c4)cc3)cn2c1 (stereo not shown) [Compound 129975] |
| > 10 | COc1ccc2nc(-c3ccc(-c4ccnc(NC(=O)CCCCOc5ccc6c(c5)CN(C5CCC(=O)NC5=O)C6=O)c4)cc3)cn2c1 (stereo not shown) [Compound 130177] |
| > 10 | CN(C)c1ccc(-c2ccc(-c3nc4ccc(NC(=O)CCOCCOc5ccc6c(c5)CN(C5CCC(=O)NC5=O)C6=O)cc4s3)c(C(F)(F)F)c2)cn1 (stereo not shown) [Compound 132560] |
| > 10 | CN1C(=O)CCC(N2Cc3cc(OCCOCCNc4ccc5nc(-c6ccc(-c7ccc(N(C)C)nc7)cc6C(F)(F)F)sc5c4)ccc3C2=O)C1=O (stereo not shown) [Compound 133065] |
| > 10 | O=C1CCC(N2Cc3cc(OCCCC(=O)Nc4cc(-c5ccc(-c6nc7ccc(F)cc7s6)cc5)ccn4)ccc3C2=O)C(=O)N1 (stereo not shown) [Compound 133678] |
| > 10 | O=C1CCC(N2Cc3cc(OCCOCCNc4cc(-c5ccc(-c6cn7ccccc7n6)cc5)ccn4)ccc3C2=O)C(=O)N1 (stereo not shown) [Compound 137955] |
| > 10 | CN(C)c1ccc(-c2ccc(-c3nc4ccc(NC(=O)CCOCCOCCOc5ccc6c(c5)CN(C5CCC(=O)NC5=O)C6=O)cc4s3)c(C(F)(F)F)c2)cn1 (stereo not shown) [Compound 138266] |
| 0.9 to 10 | COc1ccc2nc(-c3ccc(-c4ccnc(NC(=O)CCCOc5ccc6c(c5)CN(C5CCC(=O)NC5=O)C6=O)c4)cc3)sc2c1 (stereo not shown) [Compound 138876] |
| > 10 | CN(C)c1ccc(-c2ccc(-c3nc4ccc(NCCOCCOCCOCCOCCOCCOc5ccc6c(c5)C(=O)N(C5CCC(=O)NC5=O)C6=O)cc4s3)cc2)cn1 (stereo not shown) [Compound 159985, 2-[2,6-bis(oxo)piperidin-3-yl]-5-[2-[2-[2-[2-[2-[2-[[2-[4-[6-(dimethylamino)-pyridin-3-yl]phenyl]-1,3-benzothiazol-6-yl]amino]ethoxy]ethoxy]ethoxy]ethoxy]ethoxy]-ethoxy]isoindole-1,3-dione] |
| > 10 | CN(C)c1ccc(-c2ccc(-c3nc4ccc(NCCOCCOc5ccc6c(c5)C(=O)N(C5CCC(=O)NC5=O)C6=O)cc4s3)cc2)cn1 (stereo not shown) [Compound 160219, 2-[2,6-bis(oxo)piperidin-3-yl]-5-[2-[2-[[2-[4-[6-(dimethylamino)pyridin-3-yl]phenyl]-1,3-benzothiazol-6-yl]amino]ethoxy]ethoxy]isoindole-1,3-dione] |
| 0.01 to 0.9 | CN(C)c1ccc(-c2ccc(-c3nc4ccc(NCCOCCOCCOCCOCCOCCOc5ccc6c(c5)CN(C5CCC(=O)NC5=O)C6=O)cc4s3)cc2)cn1 (stereo not shown) [Compound 160273, 3-[6-[2-[2-[2-[2-[2-[2-[[2-[4-[6-(dimethylamino)pyridin-3-yl]phenyl]-1,3-benzothiazol-6-yl]amino]ethoxy]-ethoxy]ethoxy]ethoxy]ethoxy]ethoxy]-3-oxo-1H-isoindol-2-yl]piperidine-2,6-dione] |
| > 10 | CN(C)c1ccc(-c2ccc(-c3nc4ccc(NCCOCCOc5ccc6c(c5)CN(C5CCC(=O)NC5=O)C6=O)cc4s3)cc2)cn1 (stereo not shown) [Compound 160313, 3-[6-[2-[2-[[2-[4-[6-(dimethylamino)pyridin-3-yl]phenyl]-1,3-benzothiazol-6-yl]amino]ethoxy]ethoxy]-3-oxo-1H-isoindol-2-yl]piperidine-2,6-dione] |
| > 10 | CN(C)c1ccc2nc(-c3ccc(-c4ccc(NCCOCCN5C(=O)CCC(N6Cc7cc(O)ccc7C6=O)C5=O)nc4)cc3)sc2c1 (stereo not shown) [Compound 160624, 1-(2-(2-((5-(4-(6-(dimethylamino)benzo[d]thiazol-2-yl)phenyl)pyridin-2-yl)amino)ethoxy)ethyl)-3-(5-hydroxy-1-oxoisoindolin-2-yl)piperidine-2,6-dione] |
| > 10 | CN(C)c1ccc(-c2ccc(-c3cn4cc(OCCOCCOc5ccc6c(c5)C(=O)N(C5CCC(=O)NC5=O)C6=O)ccc4n3)cc2)c(F)n1 (stereo not shown) [Compound 161111, 2-[2,6-bis(oxo)piperidin-3-yl]-5-[2-[2-[2-[4-[6-(dimethylamino)-2-fluoro-pyridin-3-yl]phenyl]imidazo[1,2-a]pyridin-6-yl]oxyethoxy]ethoxy]isoindole-1,3-dione] |
| > 10 | CN(C)c1ccc2nc(-c3ccc(-c4ccc(NCCOCCOc5ccc6c(c5)C(=O)N(C5CCC(=O)NC5=O)C6=O)nc4)cc3)sc2c1 (stereo not shown) [Compound 161177, 2-[2,6-bis(oxo)piperidin-3-yl]-5-[2-[2-[[5-[4-[6-(dimethylamino)-1,3-benzothiazol-2-yl]phenyl]pyridin-2-yl]amino]ethoxy]ethoxy]isoindole-1,3-dione] |
| 0.01 to 0.9 | COc1ccc2nc(-c3ccc(-c4ccnc(NCCOCCOc5ccc6c(c5)CN(C5CCC(=O)NC5=O)C6=O)c4)cc3)cn2c1 (stereo not shown) [Compound 162640, 3-[6-[2-[2-[[4-[4-(6-methoxyimidazo[1,2-a]pyridin-2-yl)phenyl]pyridin-2-yl]amino]ethoxy]ethoxy]-3-oxidanylidene-1H-isoindol-2-yl]piperidine-2,6-dione] |
| > 10 | CN(C)c1ccc(-c2ccc(-c3nc4ccc(NCCOCCN5C(=O)CCC(N6Cc7c(N)cccc7C6=O)C5=O)cc4s3)cc2)cn1 (stereo not shown) [Compound 162641, 3-(7-azanyl-3-oxidanylidene-1H-isoindol-2-yl)-1-[2-[2-[[2-[4-[6-(dimethylamino)pyridin-3-yl]phenyl]-1,3-benzothiazol-6-yl]amino]ethoxy]ethyl]piperidine-2,6-dione] |
| 0.01 to 0.9 | CN(C)c1ccc(-c2ccc(-c3nc4ccc(OCCOCCOc5ccc6c(c5)CN(C5CCC(=O)NC5=O)C6=O)cc4o3)cc2)cn1 (stereo not shown) [Compound 163365] |
| > 10 | Cc1ncsc1-c1ccc(CNC(=O)[C@@H]2C[C@@H](O)CN2C(=O)[C@@H](NC(=O)COCCOCCOc2ccc3nc(-c4ccc(-c5ccc(N(C)C)nc5)cc4C(F)(F)F)sc3c2)C(C)(C)C)cc1 [Compound 165554] |
| > 10 | Cc1ncsc1-c1ccc(CNC(=O)[C@@H]2C[C@@H](O)CN2C(=O)C(NC(=O)COCCOCCNc2cc(-c3ccc(-c4nc5ccc(F)cc5s4)cc3)ccn2)C(C)(C)C)cc1 (stereo partly shown) [Compound 165810] |
| > 10 | O=C1CCC(N2Cc3cc(OCCOCCNc4cc(-c5ccc(-c6cn7cc(F)ccc7n6)cc5)ccn4)ccc3C2=O)C(=O)N1 (stereo not shown) [Compound 165824] |
| > 10 | CN(C)c1ccc2nc(-c3ccc(-c4ccnc(NCCOCCOc5ccc6c(c5)CN(C5CCC(=O)NC5=O)C6=O)c4)cc3)sc2c1 (stereo not shown) [Compound 165950] |
| > 10 | O=C1CCC(N2C(=O)c3ccc(OCCOCCNc4cc(-c5ccc(-c6nc7ccc(F)cc7s6)cc5)ccn4)cc3C2=O)C(=O)N1 (stereo not shown) [Compound 165952] |
| > 10 | O=C1CCC(N2Cc3cc(OCCOCCNc4ccc(-c5ccc(-c6cc7ccncc7[nH]6)cc5)cn4)ccc3C2=O)C(=O)N1 (stereo not shown) [Compound 165954] |
| 0.9 to 10 | CN(C)c1ccc(-c2ccc(-c3nc4ccc(NCCCNC(=O)COc5ccc6c(c5)CN(C5CCC(=O)NC5=O)C6=O)cc4s3)c(C(F)(F)F)c2)cn1 (stereo not shown) [Compound 166362] |
| 0.9 to 10 | CN(C)c1ccc(-c2ccc(-c3cn4cc(OCCOCCN5C(=O)CCC(N6C(=O)c7ccc(O)cc7C6=O)C5=O)ccc4n3)cc2)c(F)n1 (stereo not shown) [Compound 170350] |

| SMILES | DC50 [µM] |
| --- | --- |
| COc1cc(-c2ccc(N(C)C)nc2)ccc1-c1nc2ccc(NCCOCCOc3ccc4c(c3)CN(C3CCC(=O)NC3=O)C4=O)cc2s1 (stereo not shown) [Compound 129071] | > 10 |
| CN(C)c1ccc(-c2ccc(-c3nc4ccc(NCCCCCOc5ccc6c(c5)C(=O)N(C5CCC(=O)NC5=O)C6=O)cc4s3)cc2)cn1 (stereo not shown) [Compound 161103, 2-[2,6-bis(oxo)piperidin-3-yl]-5-[5-[[2-[4-[6-(dimethylamino)-pyridin-3-yl]phenyl]-1,3-benzothiazol-6-yl]amino]pentoxy]isoindole-1,3-dione] | > 10 |
